Measurements published in US20190284136A1, “INDOLINE DERIVATIVES” (ViiV HEALTHCARE UK LIMITED, priority 2016, published 2019).

Test system: HIV
Assay: Table 1 IC50 of the examples (assay method not given; patent concerns inhibiting HIV replication)
Assay type: cell-based
Conditions: Human immunodeficiency virus 1

| Structure (SMILES) | IC50 |
| --- | --- |
| Cc1cc2c(c(-c3cc(F)c4c(c3C)CCCO4)c1[C@H](OC(C)(C)C)C(=O)O)CCN2C(=O)c1ccccc1C(F)(F)F (atropisomer, axis not shown) [Example 125, (S)-2-(tert-Butoxy)-2-((R)-4-(8-fluoro-5-methylchroman-6-yl)-6-methyl-1-(2-(trifluoromethyl)benzoyl)indolin-5-yl)acetic acid] | 5 nM |
| COc1ccc(C(=O)N2CCc3c2cc(C)c([C@H](OC(C)(C)C)C(=O)O)c3-c2cc(F)c3c(c2C)CCCO3)c(OC)c1OC (atropisomer, axis not shown) [Example 126, (S)-2-(tert-Butoxy)-2-((R)-4-(8-fluoro-5-methylchroman-6-yl)-6-methyl-1-(2,3,4-trimethoxybenzoyl)indolin-5-yl)acetic acid] | 5 nM |
| Cc1cc2c(c(-c3cc(F)c4c(c3C)CCCO4)c1[C@H](OC(C)(C)C)C(=O)O)CCN2C(=O)c1ccc2c(c1)CCO2 (atropisomer, axis not shown) [Example 127, (S)-2-(tert-Butoxy)-2-((R)-1-(2,3-dihydrobenzofuran-5-carbonyl)-4-(8-fluoro-5-methylchroman-6-yl)-6-methylindolin-5-yl)acetic acid] | 2 nM |
| COc1ccc(C(=O)N2CCc3c2cc(C)c([C@H](OC(C)(C)C)C(=O)O)c3-c2cc(F)c3c(c2C)CCCO3)c(Cl)c1 (atropisomer, axis not shown) [Example 128, (S)-2-(tert-Butoxy)-2-((R)-1-(2-chloro-4-methoxybenzoyl)-4-(8-fluoro-5-methylchroman-6-yl)-6-methylindolin-5-yl)acetic acid] | 5 nM |
| Cc1cc2c(c(-c3cc(F)c4c(c3C)CCCO4)c1[C@H](OC(C)(C)C)C(=O)O)CCN2C(=O)c1cc2ccccc2[nH]1 (atropisomer, axis not shown) [Example 129, (S)-2-(tert-Butoxy)-2-((R)-4-(8-fluoro-5-methylchroman-6-yl)-1-(1H-indole-2-carbonyl)-6-methylindolin-5-yl)acetic acid] | 22 nM |
| Cc1cc2c(c(-c3cc(F)c4c(c3C)CCCO4)c1[C@H](OC(C)(C)C)C(=O)O)CCN2C(=O)C1=CCCCC1 (atropisomer, axis not shown) [Example 130, (S)-2-(tert-Butoxy)-2-((R)-1-(cyclohex-1-ene-1-carbonyl)-4-(8-fluoro-5-methylchroman-6-yl)-6-methylindolin-5-yl)acetic acid] | 4 nM |
| Cc1cc2c(c(-c3cc(F)c4c(c3C)CCCO4)c1[C@H](OC(C)(C)C)C(=O)O)CCN2C(=O)c1ccco1 (atropisomer, axis not shown) [Example 131, (S)-2-(tert-Butoxy)-2-((R)-4-(8-fluoro-5-methylchroman-6-yl)-1-(furan-2-carbonyl)-6-methylindolin-5-yl)acetic acid] | 110 nM |
| Cc1cc2c(c(-c3cc(F)c4c(c3C)CCCO4)c1[C@H](OC(C)(C)C)C(=O)O)CCN2C(=O)C1CC1 (atropisomer, axis not shown) [Example 132, (S)-2-(tert-Butoxy)-2-((R)-1-(cyclopropanecarbonyl)-4-(8-fluoro-5-methylchroman-6-yl)-6-methylindolin-5-yl)acetic acid] | 414 nM |
| Cc1cc2c(c(-c3cc(F)c4c(c3C)CCCO4)c1[C@H](OC(C)(C)C)C(=O)O)CCN2C(=O)c1cc(C(F)(F)F)cc(C(F)(F)F)c1 (atropisomer, axis not shown) [Example 133, (S)-2-((R)-1-(3,5-Bis(trifluoromethyl)benzoyl)-4-(8-fluoro-5-methylchroman-6-yl)-6-methylindolin-5-yl)-2-(tert-butoxy)acetic acid] | 67 nM |
| Cc1cccc(C(=O)N2CCc3c2cc(C)c([C@H](OC(C)(C)C)C(=O)O)c3-c2cc(F)c3c(c2C)CCCO3)c1Cl (atropisomer, axis not shown) [Example 135, (S)-2-(tert-Butoxy)-2-((R)-1-(2-chloro-3-methylbenzoyl)-4-(8-fluoro-5-methylchroman-6-yl)-6-methylindolin-5-yl)acetic acid] | 4 nM |
| Cc1cc2c(c(-c3cc(F)c4c(c3C)CCCO4)c1[C@H](OC(C)(C)C)C(=O)O)CCN2C(=O)c1ccc(C(F)(F)F)cc1F (atropisomer, axis not shown) [Example 136, (S)-2-(tert-Butoxy)-2-((R)-1-(2-fluoro-4-(trifluoromethyl)benzoyl)-4-(8-fluoro-5-methylchroman-6-yl)-6-methylindolin-5-yl)acetic acid] | 41 nM |
| Cc1ccc(C(=O)N2CCc3c2cc(C)c([C@H](OC(C)(C)C)C(=O)O)c3-c2cc(F)c3c(c2C)CCCO3)c(Cl)c1 (atropisomer, axis not shown) [Example 137, (S)-2-(tert-Butoxy)-2-((R)-1-(2-chloro-4-methylbenzoyl)-4-(8-fluoro-5-methylchroman-6-yl)-6-methylindolin-5-yl)acetic acid] | 4 nM |
| Cc1cc2c(c(-c3cc(F)c4c(c3C)CCCO4)c1[C@H](OC(C)(C)C)C(=O)O)CCN2C(=O)c1ccc(Cl)cc1F (atropisomer, axis not shown) [Example 138, (S)-2-(tert-Butoxy)-2-((R)-1-(4-chloro-2-fluorobenzoyl)-4-(8-fluoro-5-methylchroman-6-yl)-6-methylindolin-5-yl)acetic acid] | 5 nM |
| Cc1ccc(C(=O)N2CCc3c2cc(C)c([C@H](OC(C)(C)C)C(=O)O)c3-c2cc(F)c3c(c2C)CCCO3)c(F)c1 (atropisomer, axis not shown) [Example 139, (S)-2-(tert-Butoxy)-2-((R)-1-(2-fluoro-4-methylbenzoyl)-4-(8-fluoro-5-methylchroman-6-yl)-6-methylindolin-5-yl)acetic acid] | 6 nM |
| Cc1cc2c(c(-c3cc(F)c4c(c3C)CCCO4)c1[C@H](OC(C)(C)C)C(=O)O)CCN2C(=O)c1ccc(C(F)(F)F)c(F)c1 (atropisomer, axis not shown) [Example 140, (S)-2-(tert-Butoxy)-2-((R)-1-(3-fluoro-4-(trifluoromethyl)benzoyl)-4-(8-fluoro-5-methylchroman-6-yl)-6-methylindolin-5-yl)acetic acid] | 14 nM |
| Cc1cc(Cl)cc(C(=O)N2CCc3c2cc(C)c([C@H](OC(C)(C)C)C(=O)O)c3-c2cc(F)c3c(c2C)CCCO3)c1 (atropisomer, axis not shown) [Example 141, (S)-2-(tert-Butoxy)-2-((R)-1-(3-chloro-5-methylbenzoyl)-4-(8-fluoro-5-methylchroman-6-yl)-6-methylindolin-5-yl)acetic acid] | 6 nM |
| COc1cc(C(=O)N2CCc3c2cc(C)c([C@H](OC(C)(C)C)C(=O)O)c3-c2cc(F)c3c(c2C)CCCO3)ccc1F (atropisomer, axis not shown) [Example 142, (S)-2-(tert-Butoxy)-2-((R)-1-(4-fluoro-3-methoxybenzoyl)-4-(8-fluoro-5-methylchroman-6-yl)-6-methylindolin-5-yl)acetic acid] | 2 nM |
| Cc1cc2c(c(-c3cc(F)c4c(c3C)CCCO4)c1[C@H](OC(C)(C)C)C(=O)O)CCN2C(=O)c1ccc(C(F)(F)F)cc1Cl (atropisomer, axis not shown) [Example 144, (S)-2-(tert-Butoxy)-2-((R)-1-(2-chloro-4-(trifluoromethyl)benzoyl)-4-(8-fluoro-5-methylchroman-6-yl)-6-methylindolin-5-yl)acetic acid] | 26 nM |
